In brackets after ≈: the same amount, converted by molar mass. Like-named read-outs stand apart in the source and are kept apart here.
How the values were obtained:
S. aureus [1] = test system: S. aureus
S. aureus [2] = experiment: microbe, parasite or virus in culture; details: Staphylococcus aureus, Erythrocyte, in Oryctolagus cuniculus
S. aureus [3] = type: cell-based
RNAIII = type: cell-based, S. aureus
S. aureus [4] = experiment: Mouse model, Staph mixed with drug prior to IP injection; type: in vivo, mice; details: mixed with Staph prior to IP injection
Protocol: (§1) The assay was carried out by injecting a fixed amount of a S. aureus culture, typically containing from about 5×10^9 cells from an early exponential growth stage culture, by intraperitoneal (IP) injection into mice, based on the method described by Thakker et al., 1998.
In one study, the S. aureus was mixed with VIF-1 or FTB, prior to IP injection.

S. aureus [5] = experiment: Mouse model, Staph injected IP 20 min prior to drug injection (IP); type: in vivo, mice; details: 20 min after Staph
Protocol: as §1
In another approach, S. aureus was injected IP 20 minutes prior to IP injection of VIF-1 or FTB.
The commonly used anti-Staphylococcal antibiotics, methicillin and vancomycin, were tested in this model.

[6] = read-out: IC50 (relative activity), text b100/b101, assay not named, values match the α-hemolysin column of Table 4
[7] = read-out: Inhibition of α-Hemolysin production, Table 4, (n) in cell = number of determinations

O=C(O)CC(NC(=O)OCC1c2ccccc2-c2ccccc21)c1ccc(Br)cc1 (racemic) [(R,S)-Fmoc-3-amino-3-(4-bromophenyl)-propionic acid]
IC50 (relative activity) (S. aureus [1]): 1.0 µg

O=C(O)[C@H]1[C@H](c2ccccc2)CN1C(=O)OCC1c2ccccc2-c2ccccc21 (racemic) [Reference #104, Racemic Fmoc-trans-3-phenyl-azetidine-2-carboxylic acid]
IC50 (relative activity) (S. aureus [1]): 3.9 µg

O=C(O)CC(NC(=O)OCC1c2ccccc2-c2ccccc21)c1ccc(Br)cc1 (racemic) [Reference #127, (R,S)-Fmoc-3-amino-3-(4-bromophenyl)-propionic acid]
Inhibition of α-Hemolysin production (S. aureus [1]): 1.4 (3) μg/ml

O=C(O)[C@@H]1CC[C@H](c2ccccc2)N1C(=O)OCC1c2ccccc2-c2ccccc21 [(2S,5R)-Fmoc-5-phenyl-pyrrolidine-2-carboxylic acid]
IC50 (relative activity) (S. aureus [1]): 1.0 µg

O=C(O)CC[C@H](Cc1ccccc1)NC(=O)OCC1c2ccccc2-c2ccccc21 [(R)-Fmoc-4-amino-5-phenyl-pentanoic acid]
IC50 (relative activity) (S. aureus [1]): 1.7 µg

O=C(NC1(C(=O)O)CCCCC1)OCC1c2ccccc2-c2ccccc21 [Fmoc-1-amino-1-cyclohexane carboxylic acid]
IC50 (relative activity) (S. aureus [1]): 0.9 µg

O=C(N[C@@H](Cc1ccc2ccccc2c1)C(=O)O)OCC1c2ccccc2-c2ccccc21 [Fmoc-3-(2-naphthyl)alanine]
IC50 (S. aureus [2]; [6]): 4.2 mg/L (≈ 9.6 µM)

CC(C)(C)OC(=O)n1cc(C[C@@H](NC(=O)OCC2c3ccccc3-c3ccccc32)C(=O)O)c2ccccc21 [Fmoc-D-Trp(Boc)-OH]
IC50 (relative activity) (S. aureus [1]): 1.0 µg

O=C(N[C@@H](C(=O)O)c1ccccc1)OCC1c2ccccc2-c2ccccc21 [Fmoc-D-phenylglycine]
IC50 (S. aureus [2]; [6]): 5.5 mg/L (≈ 14.7 µM)

C[C@H](NC(=O)OCC1c2ccccc2-c2ccccc21)C(=O)O [Fmoc-L-Ala-OH]
IC50 (relative activity) (S. aureus [1]): 6.5 µg

O=C(N[C@@H](Cc1ccccc1)C(=O)O)OCC1c2ccccc2-c2ccccc21 [Fmoc-L-Phe-OH]
IC50 (relative activity) (S. aureus [1]): 1.3 µg

CC(C)(C)OC(=O)n1cc(C[C@H](NC(=O)OCC2c3ccccc3-c3ccccc32)C(=O)O)c2ccccc21 [Fmoc-L-Trp(Boc)-OH]
IC50 (relative activity) (S. aureus [1]): 1.2 µg

O=C(N[C@@H](Cc1c[nH]c2ccccc12)C(=O)O)OCC1c2ccccc2-c2ccccc21 [Fmoc-L-Trp-OH]
IC50 (relative activity) (S. aureus [1]): 9 µg

CC(C)[C@H](NC(=O)OCC1c2ccccc2-c2ccccc21)C(=O)O [Fmoc-L-Val-OH]
IC50 (relative activity) (S. aureus [1]): 4.2 µg

O=C(O)[C@@H]1CCN1C(=O)OCC1c2ccccc2-c2ccccc21 [Fmoc-L-azetidine-2-carboxylic acid]
IC50 (relative activity) (S. aureus [1]): 12 µg

O=C(N[C@H](C(=O)O)c1ccccc1)OCC1c2ccccc2-c2ccccc21 [Fmoc-L-phenylglycine]
IC50 (S. aureus [2]; [6]): 5 mg/L (≈ 13.4 µM)

O=C(N[C@@H](CC1CCCCC1)C(=O)O)OCC1c2ccccc2-c2ccccc21 [Fmoc-beta-cyclohexyl-L-alanine]
IC50 (S. aureus [2]; [6]): 4 mg/L (≈ 10.2 µM)

O=C(O)[C@H]1Cc2c([nH]c3ccccc23)CN1C(=O)OCC1c2ccccc2-c2ccccc21 [Reference #18, Fmoc-D-1,2,3,4-tetrahydronorharman-3-carboxylic acid]
Inhibition of α-Hemolysin production (S. aureus [1]): 2.0 (5) μg/ml

O=C(N[C@@H](Cc1cn(C(c2ccccc2)(c2ccccc2)c2ccccc2)cn1)C(=O)O)OCC1c2ccccc2-c2ccccc21 [Reference #29, Fmoc-L-His(Trt)-OH]
Inhibition of TSST-1 (S. aureus [3]): 4.0 µg/mL | Inhibition of RNA III activation (RNAIII): 3.7 (3) μg/ml | Inhibition of α-Hemolysin production (S. aureus [1]): 2.7 (3) μg/ml

O=C(N[C@@H](Cc1ccccc1)C(=O)O)OCC1c2ccccc2-c2ccccc21 [Reference #32, Fmoc-L-Phe-OH]
Inhibition of RNA III activation (RNAIII): >2.5 µg/mL | Inhibition of α-Hemolysin production (S. aureus [1]): 1.3 µg/mL

O=C(N[C@@H](Cc1c[nH]c2ccccc12)C(=O)O)OCC1c2ccccc2-c2ccccc21 [Reference #34, Fmoc-L-Trp-OH]
Inhibition of RNA III activation (RNAIII): >2.5 µg/mL | Inhibition of α-Hemolysin production (S. aureus [1]): 9.0 µg/mL

CC(C)[C@H](NC(=O)OCC1c2ccccc2-c2ccccc21)C(=O)O [Reference #38, Fmoc-L-Val-OH]
Inhibition of RNA III activation (RNAIII): >2.5 µg/mL | Inhibition of α-Hemolysin production (S. aureus [1]): 1.5 µg/mL

O=C(N[C@@H](Cc1cnc[nH]1)C(=O)O)OCC1c2ccccc2-c2ccccc21 [Reference #42, Fmoc-L-His]
Inhibition of α-Hemolysin production (S. aureus [1]): 47 µg/mL

CC(C)(C)OC(=O)n1cnc(C[C@H](NC(=O)OCC2c3ccccc3-c3ccccc32)C(=O)O)c1 [Reference #43, Fmoc-L-His(Boc)-OH]
Inhibition of α-Hemolysin production (S. aureus [1]): >50 µg/mL

CC(C)(C)OC(=O)n1cc(C[C@H](N)C(=O)O)c2ccccc21 [Reference #45, H-L-Trp(Boc)-OH]
Inhibition of RNA III activation (RNAIII): >10.0 µg/mL | Inhibition of α-Hemolysin production (S. aureus [1]): >50 µg/mL

N[C@@H](Cc1c[nH]c2ccccc12)C(=O)O [Reference #46, H-L-Trp-OH]
Inhibition of TSST-1 (S. aureus [3]): >10.0 µg/mL | Inhibition of RNA III activation (RNAIII): >10.0 (3) μg/ml

C[C@H](NC(=O)OCC1c2ccccc2-c2ccccc21)C(=O)O [Reference #52, Fmoc-L-Ala-OH]
Inhibition of α-Hemolysin production (S. aureus [1]): 6.5 µg/mL

CC(C)C[C@H](NC(=O)OCC1c2ccccc2-c2ccccc21)C(=O)O [Reference #67, Fmoc-L-Leu-OH]
Inhibition of α-Hemolysin production (S. aureus [1]): 2.1 (4) μg/ml

O=C(NCCCC[C@H](NC(=O)OCC1c2ccccc2-c2ccccc21)C(=O)O)OCc1ccccc1 [Reference #69, Fmoc-L-Lys(Z)-OH]
Inhibition of RNA III activation (RNAIII): 4.7 (3) μg/ml | Inhibition of α-Hemolysin production (S. aureus [1]): 2.8 (4) μg/ml

O=C(N[C@@H](Cc1ccc(Br)cc1)C(=O)O)OCC1c2ccccc2-c2ccccc21 [Reference #73, Fmoc-4-bromo-L-phenylalanine]
IC50 (S. aureus [2]; [7]): 1.7 mg/L (≈ 3.65 µM)

Cc1ccc(C[C@H](NC(=O)OCC2c3ccccc3-c3ccccc32)C(=O)O)cc1 [Reference #74, Fmoc-4-methyl-L-phenylalanine]
IC50 (S. aureus [2]; [7]): 2.3 mg/L (≈ 5.73 µM)

CC(C)(C)OC(=O)n1cc(C[C@@H](NC(=O)OCC2c3ccccc3-c3ccccc32)C(=O)O)c2ccccc21 [Reference #78, Fmoc-D-Trp(Boc)-OH]
Inhibition of α-Hemolysin production (S. aureus [1]): 1.3 (5) μg/ml

O=C(N[C@@H](CC1CCCCC1)C(=O)O)OCC1c2ccccc2-c2ccccc21 [Reference #82, Fmoc-beta-cyclohexyl-L-alanine]
IC50 (S. aureus [2]; [7]): 4 mg/L (≈ 10.2 µM)

O=C(N[C@@H](Cc1cccs1)C(=O)O)OCC1c2ccccc2-c2ccccc21 [Reference #83, Fmoc-beta-(2-thienyl)-L-alanine]
IC50 (S. aureus [2]; [6]): 25 mg/L (≈ 63.5 µM) | IC50 (S. aureus [2]; [7]): 25 mg/L (≈ 63.5 µM)

O=C(N[C@@H](Cc1ccc(Cl)cc1)C(=O)O)OCC1c2ccccc2-c2ccccc21 [Reference #92, Fmoc-4-chloro-L-D-phenylalanine]
Inhibition of α-Hemolysin production (S. aureus [1]): 1.6 (5) μg/ml

O=C(O)[C@@H]1CCN1C(=O)OCC1c2ccccc2-c2ccccc21 [Reference #120, Fmoc-L-azetidine-2-carboxylic acid]
Inhibition of α-Hemolysin production (S. aureus [1]): 12.0 µg/mL

O=C(O)CC[C@H](Cc1ccccc1)NC(=O)OCC1c2ccccc2-c2ccccc21 [Reference #126, (R)-Fmoc-4-amino-5-phenyl-pentanoic acid]
Inhibition of RNA III activation (RNAIII): 9.0 (2) μg/ml | Inhibition of α-Hemolysin production (S. aureus [1]): 1.7 (4) μg/ml

N[C@@H](Cc1c[nH]c2ccccc12)C(=O)O [Trp, reference compound]
% Survival at 24 hr. (S. aureus [4]; 1 mg/kg): 0% | % Survival at 24 hr. (S. aureus [4]; 5 mg/kg): 33%

COc1cccc(OC)c1C(=O)N[C@@H]1C(=O)N2[C@@H]1SC(C)(C)[C@@H]2C(=O)O [methicillin, reference compound]
% Survival at 24 hr. (S. aureus [5]; 1 mg/kg IP): 17% | % Survival at 24 hr. (S. aureus [5]; 10 mg/kg IP): 50% | % Survival at 24 hr. (S. aureus [5]; 100 mg/kg IP): 100%

CN[C@H](CC(C)C)C(=O)N[C@H]1C(=O)N[C@@H](CC(N)=O)C(=O)N[C@H]2C(=O)N[C@H]3C(=O)N[C@H](C(=O)N[C@H](C(=O)O)c4cc(O)cc(O)c4-c4cc3ccc4O)[C@H](O)c3ccc(c(Cl)c3)Oc3cc2cc(c3O[C@@H]2O[C@H](CO)[C@@H](O)[C@H](O)[C@H]2O[C@H]2C[C@](C)(N)[C@H](O)[C@H](C)O2)Oc2ccc(cc2Cl)[C@H]1O [vancomycin, reference compound]
% Survival at 24 hr. (S. aureus [5]; 0.5 mg/kg IP): 17% | % Survival at 24 hr. (S. aureus [5]; 5 mg/kg IP): 50% | % Survival at 24 hr. (S. aureus [5]; 50 mg/kg IP): 100%
